Measurements taken from patent US6121239A, “Peptide substrates for the identification of factor Xa” (Serbio, priority 1990, dated 2000).
Non-standard residues stand in square brackets, D forms with d. Residues, ends and D or L forms follow the SMILES beside them. *: point of attachment. pNA = O=[N+]([O-])c1ccc(N*)cc1; X1 = COC(=O)CC(=O)*; Ms = CS(=O)(=O)*

biological target: Factor Xa (Homo sapiens, UniProt P00742); experiment: Activity towards Factor Xa: hydrolysis rate by variation in optical density with time (ΔOD/min); type: biochemical; details: hydrolysis rate (ΔOD/min) at equimolar doses; activity of reference product CP 1 specified as 100%
Sequence (P00742 235-488 limits assumed): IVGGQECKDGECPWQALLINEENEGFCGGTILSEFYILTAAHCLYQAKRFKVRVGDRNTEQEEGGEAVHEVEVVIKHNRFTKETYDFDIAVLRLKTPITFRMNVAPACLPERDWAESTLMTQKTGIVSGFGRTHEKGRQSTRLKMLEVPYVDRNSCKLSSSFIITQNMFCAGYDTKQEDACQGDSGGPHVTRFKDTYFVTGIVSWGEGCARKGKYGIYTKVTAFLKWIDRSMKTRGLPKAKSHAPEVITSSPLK
Sequence (P00742 41-179 partner limits assumed): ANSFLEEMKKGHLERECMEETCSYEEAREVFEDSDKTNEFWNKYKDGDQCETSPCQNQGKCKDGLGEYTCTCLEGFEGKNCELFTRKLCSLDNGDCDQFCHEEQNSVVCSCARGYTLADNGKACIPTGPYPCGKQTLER
Protocol: The activity of the peptides according to the invention towards Factor Xa was determined by one of the conventional methods, such as the one described in EP-A-0 280 160 (see page 14), the hydrolysis rate being assessed by the variation in optical density with time (ΔOD/min). The results obtained at equimolar doses have been collated in Table III below, where the activity of the reference product CP 1 is specified as being equal to 100% for the sake of convenience.

Going from `CC[C@@H](C)[C@@H](NC(=O)CC(=O)OC)C(=O)N[C@@H](CCC(=O)OC)C(=O)NCC(=O)N[C@@H](CCCNC(=N)N)C(=O)Nc1ccc([N+](=O)[O-])cc1` [Ex. 33, MM-D-Ile-L-Glu(OMe)-Gly-L-Arg-pNA] (X1-[dI]E(OMe)GR-pNA) to `CCCC[C@@H](NC(=O)CC(=O)OC)C(=O)NCC(=O)N[C@@H](CCCNC(=N)N)C(=O)Nc1ccc([N+](=O)[O-])cc1` [Ex. 14, MM-D-Nle-Gly-L-Arg-pNA], the “Activity (activity towards Factor Xa)” value rises from 105% to 140%.

Going from `COCCOC(=O)N[C@H](CC(C)C)C(=O)NCC(=O)N[C@@H](CCCNC(=N)N)C(=O)Nc1ccc([N+](=O)[O-])cc1` [Ex. 61, Me-OCH2 CH2 O-CO-D-Leu-Gly-L-Arg-pNA.AcOH] to `COCCOCCOC(=O)N[C@H](CC(C)C)C(=O)NCC(=O)N[C@@H](CCCNC(=N)N)C(=O)Nc1ccc([N+](=O)[O-])cc1` [Ex. 62, Me-O(CH2 CH2 O)2 -CO-D-Leu-Gly-L-Arg-pNA.AcOH], the “Activity (activity towards Factor Xa)” value falls from 145% to 105%.

Compared with `COCCOCCOCCOC(=O)N[C@H](CC(C)C)C(=O)NCC(=O)N[C@@H](CCCNC(=N)N)C(=O)Nc1ccc([N+](=O)[O-])cc1` [Ex. 63, MeO(CH2 CH2 O)3 -CO-D-Leu-Gly-L-Arg-pNA], `CCCC[C@@H](NC(=O)OCCOCCOCCOC)C(=O)NCC(=O)N[C@@H](CCCNC(=N)N)C(=O)Nc1ccc([N+](=O)[O-])cc1` [Ex. 73] is higher in “Activity (activity towards Factor Xa)” value: 110% for the first, 121% for the second.

Compared with `COC(=O)CC(=O)N[C@H](CC(C)C)C(=O)NCC(=O)N[C@@H](CCCNC(=N)N)C(=O)Nc1ccc([N+](=O)[O-])cc1` [Ex. 1, MM-D-Leu-Gly-L-Arg-pNA.AcOH], `CCOC(=O)CC(=O)N[C@H](CC(C)C)C(=O)NCC(=O)N[C@@H](CCCNC(=N)N)C(=O)Nc1ccc([N+](=O)[O-])cc1` [Ex. 2, EM-D-Leu-Gly-L-Arg-pNA] is higher in “Activity (activity towards Factor Xa)” value: 115% for the first, 132% for the second.

Compared with `CC(C)C[C@@H](NS(C)(=O)=O)C(=O)NCC(=O)N[C@@H](CCCNC(=N)N)C(=O)Nc1ccc([N+](=O)[O-])cc1` [CP 1, reference compound] (Ms-[dL]-Gly-Arg-pNA), `COCCOCCOCCOCCOCCOCCOCCOC(=O)N[C@H](CC(C)C)C(=O)NCC(=O)N[C@@H](CCCNC(=N)N)C(=O)Nc1ccc([N+](=O)[O-])cc1` [Ex. 64, Me-O(CH2 CH2 O)7 -CO-D-Leu-Gly-L-Arg-pNA.AcOH] is higher in “Activity (activity towards Factor Xa)” value: 100% for the first, 103% for the second.

With `CCCCOCCOCCOCCOCCOCCOCCOCCOC(=O)N[C@H](CCCC)C(=O)NCC(=O)N[C@@H](CCCNC(=N)N)C(=O)Nc1ccc([N+](=O)[O-])cc1` [Ex. 101] the “Activity (activity towards Factor Xa)” value was 124%.
